Test results as given in patent US8835466B2, “Synthesis and uses of pyroglutamic acid derivatives” (Prodimed, S.A., priority 2006, dated 2014).

Experiments:
[1] = system: Mm5MT (Breast tumour); experiment: Effect of isomer 4 (9d) on tumour growth, Mm5MT (Example 10); type: in vivo; settings: C3H/HeN mice, 250 ng/mice i.p. days 6, 7 and 14
Procedure: (§1) The following assays were made in order to check the effect of isomer 4 (9d) on different tumours following methods and materials analogous to those used in examples 8 and 9, In all cases sterile physiologic saline (Grifols, Barcelona, Spain) was used as placebo. Isomer 4 (9d) was tested at the dose levels indicated in Table 13 on days 6, 7 and 14 after tumour inoculation. In all cases the vehicle was physiologic saline and the treatments were given by intraperitoneal route. The volume inoculated was 0.2 mL/animal.

[2] = system: ASB XIV (lung carcinoma); experiment: Effect of isomer 4 (9d) on tumour growth, ASB XIV (Example 10); type: in vivo; settings: Balb/cAnNCrI mice, 260 ng/mice i.p. days 6, 7 and 14
Procedure: as §1

[3] = system: P-815 (Mastocytoma); experiment: Effect of isomer 4 (9d) on tumour growth, P-815 (Example 10); type: in vivo; settings: DBA/2NCrI mice, 250 ng/mice i.p. days 6, 7 and 14
Procedure: as §1

[4] = system: KLN 205 cells (lung cell carcinoma); experiment: Effect of 9d and Cisplatin on KLN 205 tumour growth after subcutaneous, intradermal or intramuscular inoculation (Example 12); type: in vivo, DBA/2 mice
Procedure: This was carried out by measuring two perpendicular diameters (d1/d2) with a calliper. These measures were used to obtain both tumour surface and volume: […] Results were expressed as single values and/or as the mean±SD or median from each experimental group. This assay was made in order to check the effect on in vivo tumour growth in mice challenged with KLN 205 cells. Tumours where established by subcutaneous, intradermal or intramuscular inoculation. The effect of the combination of cisplatin and/or Isomer (9d) was compared with placebo in mice challenged intradermally. […] KLN 205 is a lung cell carcinoma originated in DBA/2 mouse strain, and therefore syngeneic in mice with DBA/2 genetic background (Kaneko T and […]. Growth characteristics and drug responses of a murine lung carcinoma in vitro and in vivo. Cancer Research. 38: 2084-2090; 1978). KLN 205 cells (CLS, Eppelheim, Germany) were maintained in vitro by serial passages every 3-4 days. […] Louis, Mo., USA) by seeding 5×10^6 cells onto 75 cm^2 culture flasks. Subcultures were carried out by collecting detached cells after treatment with trypsin-EDTA (Sigma, St. Louis, Mo., USA). Tumour cells, collected from 48 hour cultures, were used as source of KLN 205 cells for the studies described below. […] Tumours were established by subcutaneous and intradermal inoculation in the right hind flank, and intramuscular in the right hind leg. Mice (DBA/2) were inoculated with 0.05 mL containing 2×10^5 viable KLN 205 cells. The day of subcutaneous, intradermal and intramuscular inoculation will be considered Day 0 of the test. A case-control study was performed with treated and control mice in order to determine whether differences between placebo, 9d, Cisplatin or 9d+Cisplatin were present. The data obtained (tumour surface and volume) were tested for Normal distribution within the groups (Kolmogorov Smirnov test p<0.05). […] The U-test of Mann Withney was chosen for being one of the better known non-parametrical tests, anyway, results for this test are equivalent both to those of Wilcoxon's sum of ranges and Kruskal-Wallis two-groups test.

[5] = Group A2 (9d 250 ng/mouse), day 0 after tumour inoculation
[6] = Group A2 (9d 250 ng/mouse), day 10 after tumour inoculation
[7] = Group A2 (9d 250 ng/mouse), day 13 after tumour inoculation
[8] = Group A2 (9d 250 ng/mouse), day 17 after tumour inoculation
[9] = Group A2 (9d 250 ng/mouse), day 20 after tumour inoculation
[10] = Group A2 (9d 250 ng/mouse), day 24 after tumour inoculation
[11] = Group A2 (9d 250 ng/mouse), day 27 after tumour inoculation
[12] = Group A2 (9d 250 ng/mouse), day 31 after tumour inoculation
[13] = Group C2 (9d 250 ng/mouse), day 0 after tumour inoculation
[14] = Group C2 (9d 250 ng/mouse), day 10 after tumour inoculation
[15] = Group C2 (9d 250 ng/mouse), day 13 after tumour inoculation
[16] = Group C2 (9d 250 ng/mouse), day 17 after tumour inoculation
[17] = Group C2 (9d 250 ng/mouse), day 20 after tumour inoculation
[18] = Group C2 (9d 250 ng/mouse), day 24 after tumour inoculation
[19] = Group C2 (9d 250 ng/mouse), day 27 after tumour inoculation
[20] = Group C2 (9d 250 ng/mouse), day 31 after tumour inoculation
[21] = Group C2 (9d 250 ng/mouse), day 34 after tumour inoculation
[22] = Group C2 (9d 250 ng/mouse), day 38 after tumour inoculation
[23] = Groups B2-B4 (9d 250 ng, Cisplatin 65 μg, or both), day 0 after tumour inoculation
[24] = Groups B2-B4 (9d 250 ng, Cisplatin 65 μg, or both), day 10 after tumour inoculation
[25] = Groups B2-B4 (9d 250 ng, Cisplatin 65 μg, or both), day 13 after tumour inoculation
[26] = Groups B2-B4 (9d 250 ng, Cisplatin 65 μg, or both), day 17 after tumour inoculation
[27] = Groups B2-B4 (9d 250 ng, Cisplatin 65 μg, or both), day 20 after tumour inoculation
[28] = Groups B2-B4 (9d 250 ng, Cisplatin 65 μg, or both), day 24 after tumour inoculation
[29] = Groups B2-B4 (9d 250 ng, Cisplatin 65 μg, or both), day 27 after tumour inoculation
[30] = Groups B2-B4 (9d 250 ng, Cisplatin 65 μg, or both), day 31 after tumour inoculation

Br.N[C@]1(C[n+]2ccccc2)C[C@H](C(=O)O)NC1=O.[Br-] (single isomer, unassigned; isomer 4) [isomer 4, 3S,5R-1-(3-Amino-5-carboxy-2-oxopyrrolidin-3-ylmethyl)pyridinium bromide hidrobromide]
Tumour growth inhibition? [1]: YES | Tumour growth inhibition? ([2]; ASB XIV (high dose lung carcinoma)): YES | Tumour growth inhibition? ([2]; ASB XIV (low dose lung carcinoma)): YES | Tumour growth inhibition? [3]: YES | SURFACE Overall values (Mean) [4, 5]: 0 mm^2 | SURFACE Overall values (Median) [4, 5]: 0 mm^2 | VOLUME Overall values (Mean) [4, 5]: 0 mm^3 | VOLUME Overall values (Median) [4, 5]: 0 mm^3 | SURFACE Overall values (Mean) [4, 6]: 11.4 mm^2 | SURFACE Overall values (Median) [4, 6]: 12.5 mm^2 | VOLUME Overall values (Mean) [4, 6]: 22 mm^3 | VOLUME Overall values (Median) [4, 6]: 22.75 mm^3 | SURFACE Overall values (Mean) [4, 7]: 27.4 mm^2 | SURFACE Overall values (Median) [4, 7]: 30 mm^2 | VOLUME Overall values (Mean) [4, 7]: 75.5 mm^3 | VOLUME Overall values (Median) [4, 7]: 75 mm^3 | SURFACE Overall values (Mean) [4, 8]: 49 mm^2 | SURFACE Overall values (Median) [4, 8]: 45 mm^2 | VOLUME Overall values (Mean) [4, 8]: 171.6 mm^3 | VOLUME Overall values (Median) [4, 8]: 135 mm^3 | SURFACE Overall values (Mean) [4, 9]: 74.4 mm^2 | SURFACE Overall values (Median) [4, 9]: 70 mm^2 | VOLUME Overall values (Mean) [4, 9]: 304.2 mm^3 | VOLUME Overall values (Median) [4, 9]: 245 mm^3 | SURFACE Overall values (Mean) [4, 10]: 117.4 mm^2 | SURFACE Overall values (Median) [4, 10]: 118.5 mm^2 | VOLUME Overall values (Mean) [4, 10]: 554.9 mm^3 | VOLUME Overall values (Median) [4, 10]: 506.25 mm^3 | SURFACE Overall values (Mean) [4, 11]: 149.3 mm^2 | SURFACE Overall values (Median) [4, 11]: 159 mm^2 | VOLUME Overall values (Mean) [4, 11]: 765.05 mm^3 | VOLUME Overall values (Median) [4, 11]: 800 mm^3 | SURFACE Overall values (Mean) [4, 12]: 179.2 mm^2 | SURFACE Overall values (Median) [4, 12]: 186 mm^2 | VOLUME Overall values (Mean) [4, 12]: 1020 mm^3 | VOLUME Overall values (Median) [4, 12]: 1058.75 mm^3 | SURFACE Overall values (Mean) [4, 13]: 0 mm^2 | SURFACE Overall values (Median) [4, 13]: 0 mm^2 | SURFACE Overall values (Mean) [4, 14]: 0.06 mm^2 | SURFACE Overall values (Median) [4, 14]: 0.03 mm^2 | SURFACE Overall values (Mean) [4, 15]: 0.18 mm^2 | SURFACE Overall values (Median) [4, 15]: 0.17 mm^2 | SURFACE Overall values (Mean) [4, 16]: 0.37 mm^2 | SURFACE Overall values (Median) [4, 16]: 0.315 mm^2 | SURFACE Overall values (Mean) [4, 17]: 0.89 mm^2 | SURFACE Overall values (Median) [4, 17]: 0.93 mm^2 | SURFACE Overall values (Mean) [4, 18]: 2.48 mm^2 | SURFACE Overall values (Median) [4, 18]: 1.83 mm^2 | SURFACE Overall values (Mean) [4, 19]: 6.7 mm^2 | SURFACE Overall values (Median) [4, 19]: 6.94 mm^2 | SURFACE Overall values (Mean) [4, 20]: 13.61 mm^2 | SURFACE Overall values (Median) [4, 20]: 12.26 mm^2 | SURFACE Overall values (Mean) [4, 21]: 29.17 mm^2 | SURFACE Overall values (Median) [4, 21]: 24.34 mm^2 | SURFACE Overall values (Mean) [4, 22]: 41.53 mm^2 | SURFACE Overall values (Median) [4, 22]: 37.56 mm^2 | SURFACE Overall values (Mean) [4, 23]: 0 mm^2 | SURFACE Overall values (Median) [4, 23]: 0 mm^2 | VOLUME Overall values (Mean) [4, 23]: 0 mm^3 | VOLUME Overall values (Median) [4, 23]: 0 mm^3 | SURFACE Overall values (Mean) [4, 24]: 14.3 mm^2 | SURFACE Overall values (Median) [4, 24]: 12.5 mm^2 | VOLUME Overall values (Mean) [4, 24]: 28.85 mm^3 | VOLUME Overall values (Median) [4, 24]: 22.75 mm^3 | SURFACE Overall values (Mean) [4, 25]: 27.9 mm^2 | SURFACE Overall values (Median) [4, 25]: 25 mm^2 | VOLUME Overall values (Mean) [4, 25]: 74.95 mm^3 | VOLUME Overall values (Median) [4, 25]: 62.5 mm^3 | SURFACE Overall values (Mean) [4, 26]: 46.3 mm^2 | SURFACE Overall values (Median) [4, 26]: 42 mm^2 | VOLUME Overall values (Mean) [4, 26]: 150.05 mm^3 | VOLUME Overall values (Median) [4, 26]: 126 mm^3 | SURFACE Overall values (Mean) [4, 27]: 71.2 mm^2 | SURFACE Overall values (Median) [4, 27]: 63.5 mm^2 | VOLUME Overall values (Mean) [4, 27]: 280.6 mm^3 | VOLUME Overall values (Median) [4, 27]: 232.75 mm^3 | SURFACE Overall values (Mean) [4, 28]: 107.8 mm^2 | SURFACE Overall values (Median) [4, 28]: 95 mm^2 | VOLUME Overall values (Mean) [4, 28]: 496.8 mm^3 | VOLUME Overall values (Median) [4, 28]: 425.25 mm^3 | SURFACE Overall values (Mean) [4, 29]: 141.7 mm^2 | SURFACE Overall values (Median) [4, 29]: 128 mm^2 | VOLUME Overall values (Mean) [4, 29]: 744.75 mm^3 | VOLUME Overall values (Median) [4, 29]: 608.5 mm^3 | SURFACE Overall values (Mean) [4, 30]: 177.1 mm^2 | SURFACE Overall values (Median) [4, 30]: 162.5 mm^2 | VOLUME Overall values (Mean) [4, 30]: 1029.35 mm^3 | VOLUME Overall values (Median) [4, 30]: 885.75 mm^3 | Differences in intradermal KLN 205 tumour growth rate vs. placebo, in words ([4]; intradermal inoculation, Mann-Whitney U test): not differences | Intradermal KLN 205 tumour growth vs. placebo, tendency in words ([4]; intradermal inoculation, surface or volume, all days scored after day 17th): significant tendency | Differences in intramuscular KLN 205 tumour growth rate vs. placebo, in words ([4]; intramuscular inoculation, Mann-Whitney U test): not differences | Inhibition of the in vivo growth of subcutaneous KLN 205 cells, in words ([4]; subcutaneous inoculation): inhibit the in vivo growth | Differences in subcutaneous KLN 205 tumour growth rate vs. placebo, statistical significance p (Mann-Whitney U test) ([4]; subcutaneous inoculation, surface or volume, all days scored after the day 20th): < 0.05
